Experimental data from ChEMBL document CHEMBL1155490, “Aaptamine, an alkaloid from the sponge Aaptos suberitoides, functions as a proteasome inhibitor” (Bioorg Med Chem Lett, 2010).
≈ marks a conversion by molar mass, not a printed value.

Columns and labels:
[1] = Inhibition of caspase-like activity of 20S proteasome in human erythrocyte by spectrofluorimetry
[2] = Inhibition of chymotrypsin-like activity of purified 20S proteasome from human erythrocyte
[3] = Inhibition of chymotrypsin like activity of partially purified rat liver proteasome by spectrofluorimetry; type: subcellular
[4] = Inhibition of trypsin like activity of partially purified rat liver proteasome by spectrofluorimetry; type: subcellular
HeLa = assay: Cytotoxicity against human HeLa cells after 3 days by MTT assay; type: functional, cell-based; details: 72 h
[5] = Inhibition of caspase like activity of partially purified rat liver proteasome by spectrofluorimetry; type: subcellular

Row | Compound | IC50 [1] | IC50 [2] | IC50 [3] | IC50 [4] | IC50 (HeLa) | IC50 [5]
1 | COc1cc2ccnc3c2c(c1OC)NC=C3 [AAPTAMINE] | 4.6 µg/mL (≈ 20.2 µM) | 4.3 µg/mL (≈ 18.8 µM) | 1.6 µg/mL (≈ 7.01 µM) | 18 µg/mL (≈ 78.9 µM) | 15 µg/mL (≈ 65.7 µM) | 2.7 µg/mL (≈ 11.8 µM)
2 | COc1cc2ccnc3c2c(c1O)N(C)C=C3 [ISOAAPTAMINE] | 1.7 µg/mL (≈ 7.45 µM) | 1.7 µg/mL (≈ 7.45 µM) | 2.1 µg/mL (≈ 9.2 µM) | 10 µg/mL (≈ 43.8 µM) | 3.1 µg/mL (≈ 13.6 µM) | 2.4 µg/mL (≈ 10.5 µM)
